Reference: patent US20080044390A1, “Methods and compositions for the treatment of neurodegenerative disorders” (priority 2006, published 2008)
Counter-ions that a name gives are not always drawn. Like-named read-outs stand apart in the source and are kept apart here.

Test system: PC12/HttN90Q103 cells
Test: CellTiter-Blue assay, rescue of HttN90Q103-induced cell death
Type: cell-based, rat
From the text: In this stable PC12 line (PC12/HttN90Q103), transcription of the Htt transgene is driven by an ecdysone-regulated promoter such that the expression of HttN90Q103 can be turned on or off by the addition or removal of the non-steroidal ecdysone analog tebufenozide (teb).
Using the engineered PC12/HttN90Q103 cell line together with Perkin Elmer's ATPlite™ assay kit or CellTiter-Blue™ assay, a high throughput assay to screen small molecules for their ability to prevent mutant Htt exon 1-induced cell death was developed and optimized.
The following formulas were used to calculate mutant Htt-induced cytotoxicity and test compound rescue: % killing=[(un-induced−induced-DMSO treated)/un-induced]×100 % rescue=[(drug treated−induced-DMSO treated)/(un-induced−induced-DMSO treated)]×100
For single-agent ranking, the assay was performed in 384-well plates to obtain duplicate dose response curves in 12-step dilutions with a dosing ratio f=2 over 3 orders of magnitude.
The uncertainty of each fitted parameter was estimated from the range over which the change in reduced chi-squared was less than one, or less than minimum reduced chi-squared if that minimum exceeded one, to allow for underestimated σI errors.
Day 1—Add Compounds 4 hours post-induction • 1) Remove compound plates from dessicator. • 2) Using the PlateMate, prepare dilution plate with 100 μL per well of the complete cell medium at room temperature in clear untreated 384-well plates. • 3) Using the MiniTrak, make compound dilution plates: 1 μL from each well of stock plates into 100 μL of media in the dilution plate for a 1:100 dilution (10× stock in media). • 4) Using the MiniTrak, add 4.5 μL of the diluted stock to each well of cells in assay plates. • 5) Make positive control solution: dilute 20 mM stock of BOC-D-FMK in media for a 10× stock. • 6) Manually add 4.5 μL positive control to C1-N1. • 7) Incubate plates at 37° C. for three days. • (for ranking combinations, steps 5 and 6 are omitted as there is positive control on the compound plates)
Day 4—CellTiter-Blue™ assay • 1) Make solution of 5% CellTiter-Blue™ in Q103 media. • 2) Using the Multidrop, add 40 μL of 5% CellTiter-Blue™ solution to each well of the assay plates. • 3) Incubate plates with CellTiter-Blue™ at 37° C.

[1] = Rattus norvegicus, PC-12, CellTiter-Blue, single agent, 250 nM tebufenozide induction, read-out: Max Effect (% rescue)
[2] = Rattus norvegicus, PC-12, CellTiter-Blue, single agent, sigmoidal fit of 12-step dose response, read-out: EC50
[3] = CellTiter-Blue, single agent, 250 nM tebufenozide induction
[4] = CellTiter-Blue, single agent, sigmoidal fit of 12-step dose response, read-out: EC50

| Compound | Emax [1] | EC50 [2] | other results |
| --- | --- | --- | --- |
| CC(=O)c1ccc(S(=O)(=O)NC(=O)NC2CCCCC2)cc1 [Acetohexamide] | 18% | 3.9 µM | – |
| NC(=O)c1ncn([C@@H]2O[C@H](CO)[C@@H](O)[C@H]2O)c1N [Aicar] | – | – | Max Effect (% rescue) [3]: 23%; EC50 [4]: 14.1 µM |
| C=C1/C(=C\C=C2/CCC[C@]3(C)[C@@H]([C@H](C)CCCC(C)(C)O)CC[C@@H]23)C[C@@H](O)C[C@@H]1O [Calcitriol] | – | – | EC50 (Rattus norvegicus, PC-12): 0.01 µM; Emax (Rattus norvegicus, PC-12, read-out: Max Effect (% rescue)): 33% |
| C[N+](C)(C)CCOC(N)=O [Carbachol] | 15% | 6.8 µM | – |
| COC(=O)CC[C@@H](C)[C@H]1CC[C@H]2[C@@H]3[C@H](OC(C)=O)C[C@@H]4C[C@H](OC(C)=O)CC[C@]4(C)[C@H]3CC[C@]12C [Chenodeoxycholic acid diacetate methyl ester] | – | – | Max Effect (% rescue) [3]: 24%; EC50 [4]: 2.1 µM |
| O=c1cc(-c2ccccc2)oc2cc(O)cc(O)c12 [Chrysin] | 14% | 1.1 µM | – |
| Oc1ccc(Cl)cc1Cc1ccccc1 [Clorophene] | 30% | 0.9 µM | – |
| C[C@]12CC[C@H](O)CC1=CC[C@@H]1[C@@H]2CC[C@]2(C)C(=O)CC[C@@H]12 [Dehydroepiandrosterone] | 21% | 11 µM | – |
| C[C@H]1O[C@@H](O[C@H]2[C@@H](O)C[C@H](O[C@H]3[C@@H](O)C[C@H](O[C@H]4CC[C@@]5(C)[C@H](CC[C@@H]6[C@@H]5CC[C@]5(C)[C@@H](C7=CC(=O)OC7)CC[C@]65O)C4)O[C@@H]3C)O[C@@H]2C)C[C@H](O)[C@@H]1O [Digitoxin] | 11% | 3.5 µM | – |
| c1ccc2c(c1)[I+]c1ccccc1-2 [Diphenyleneiodonium] | 26% | 0.1 µM | – |
| C=C1C[C@@H]2[C@H](CC[C@]3(C)C(=O)CC[C@@H]23)[C@@]2(C)C=CC(=O)C=C12 [Exemestane] | 16% | 1.5 µM | – |
| COc1ccc(CNC(=O)Nc2ncc([N+](=O)[O-])s2)cc1 [GSK-3β inhibitor VIII (AR-A014418), N-(4-Methoxybenzyl)-N′-(5-nitro-1,3-thiazol-2-yl)urea] | 43% | 3.6 µM | – |
| O=C1NCCC1=Cc1ccc2c(c1)OCO2 [Heat shock protein inhibitor I (KNK-437), 3,4-methylenedioxy-benzylidine-γ-butyrolactam] | – | – | Max Effect (% rescue) [3]: 20%; EC50 [4]: 8.2 µM |
| C=C[C@@]1(C)CC(=O)[C@]2(O)[C@@]3(C)[C@@H](O)CCC(C)(C)[C@@H]3[C@H](OC(=O)CCN(C)C)[C@H](OC(C)=O)[C@@]2(C)O1 [NKH-477, 6-(3-dimethylaminopropionyl)forskolin] | – | – | Max Effect (% rescue) [3]: 69%; EC50 [4]: 7.2 µM |
| CO[C@@H]1[C@@H](OC(N)=O)[C@@H](O)[C@H](Oc2ccc3c(O)c(NC(=O)c4ccc(O)c(CC=C(C)C)c4)c(=O)oc3c2C)OC1(C)C [Novobiocin] | 27% | 3 µM | – |
| Cl.NCCc1ccc(S(=O)(=O)F)cc1 [Pefabloc SC] | – | – | Max Effect (% rescue) [3]: 34%; EC50 [4]: 6.8 µM |
| Cc1ccc(C(=O)Cn2c3c(sc2=N)CCCC3)cc1 [Pifithrin α, 2-(2-imino-4,5,6,7-tetrahydrobenzothiazol-3-yl)-1-p-tolylethanone hydrobromide] | 15% | 6 µM | – |
| CC(=O)[C@H]1CC[C@H]2[C@@H]3CC=C4C[C@@H](O)CC[C@]4(C)[C@H]3CC[C@]12C [Pregnenolone, 5-pregnen-3β-ol-20-one] | – | – | Max Effect (% rescue) [3]: 22%; EC50 [4]: 11.9 µM |
| C=CC[C@@H]1/C=C(\C)C[C@H](C)C[C@H](OC)[C@H]2O[C@@](O)(C(=O)C(=O)N3CCCC[C@H]3C(=O)O[C@H](/C(C)=C/[C@@H]3CC[C@@H](O)[C@H](OC)C3)[C@H](C)[C@@H](O)CC1=O)[C@H](C)C[C@@H]2OC [Tacrolimus (FK-506), Tacrolimus] | 36% | 0.1 µM | – |
| C[C@]12C=CC(=O)C=C1CC[C@@H]1[C@@H]2CC[C@]2(C)OC(=O)CC[C@@H]12 [Testolactone] | 52% | 7.6 µM | – |
| Cc1c(C)c2c(c(C)c1O)CCC(C)(COc1ccc(CC3SC(=O)NC3=O)cc1)O2 (stereo not drawn) [Troglitazone] | 49% | 17.8 µM | – |
